Values joined by “and” are separate entries in the source; they are usually repeats but may differ in a detail not shown here. Equal entries are not always repeated. Toxic doses and inconclusive results are not listed.
Tested on: L1210 leukemia ip in BDF1 mice, survival T/C
Assay: NCI In Vivo Anticancer Drug Screen. Data for tumor model L1210 Leukemia (intraperitoneal) in B6D2F1 (BDF1) mice
Conditions: endpoint: mean survival time, higher = longer survival
Summary of the method: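 Ratio derived from survival: compound-dosed mice over vehicle-dosed mice, all bearing a transplantable tumor.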

[1] = dose: 100.0 mg/kg/injection, schedule: Q01DX009 (ip), vehicle: saline
[2] = dose: 100.0 mg/kg/injection, schedule: Q04DX002 (ip), vehicle: Klucel (hydroxypropylcellulose) (HPC)
[3] = dose: 200.0 mg/kg/injection, schedule: Q04DX002 (ip), vehicle: Klucel (hydroxypropylcellulose) (HPC)
[4] = dose: 400.0 mg/kg/injection, schedule: Q04DX002 (ip), vehicle: Klucel (hydroxypropylcellulose) (HPC)
[5] = dose: 100.0 mg/kg/injection, schedule: Q01DX009 (ip), vehicle: saline with Tween-80
[6] = dose: 200.0 mg/kg/injection, schedule: Q01DX009 (ip), vehicle: saline
[7] = dose: 100.0 mg/kg/injection, schedule: Q04DX003 (ip), vehicle: saline
[8] = dose: 200.0 mg/kg/injection, schedule: Q04DX003 (ip), vehicle: saline
[9] = dose: 400.0 mg/kg/injection, schedule: Q04DX003 (ip), vehicle: saline
[10] = dose: 100.0 mg/kg/injection, schedule: Q01DX001 (ip), vehicle: Klucel (hydroxypropylcellulose) (HPC)
[11] = dose: 200.0 mg/kg/injection, schedule: Q01DX001 (ip), vehicle: Klucel (hydroxypropylcellulose) (HPC)

In the case of `CCOC(=O)/C(=N/N=C(N)N)c1c(C)[nH]c2ccccc12`, the T/C (dose: 15.0 mg/kg/injection, schedule: Q01DX Z (ip), vehicle: carboxymethylcellulose (CMC)) is reported as 102 % of control, the T/C (dose: 30.0 mg/kg/injection, schedule: Q01DX Z (ip), vehicle: carboxymethylcellulose (CMC)) is reported as 100 % of control and the T/C (dose: 60.0 mg/kg/injection, schedule: Q01DX Z (ip), vehicle: carboxymethylcellulose (CMC)) is reported as 95 % of control and 100 % of control. The T/C (dose: 120.0 mg/kg/injection, schedule: Q01DX Z (ip), vehicle: carboxymethylcellulose (CMC)) was 93 % of control and 100 % of control, the T/C (dose: 240.0 mg/kg/injection, schedule: Q01DX Z (ip), vehicle: carboxymethylcellulose (CMC)) was 100 % of control and the T/C (dose: 240.0 mg/kg/injection, schedule: Q01DX Z (sc), vehicle: carboxymethylcellulose (CMC)) was 112 % of control. For the same compound, the T/C (dose: 480.0 mg/kg/injection, schedule: Q01DX Z (ip), vehicle: carboxymethylcellulose (CMC)) was 90 % of control, the T/C (dose: 480.0 mg/kg/injection, schedule: Q01DX Z (sc), vehicle: carboxymethylcellulose (CMC)) was 114 % of control and the T/C (dose: 960.0 mg/kg/injection, schedule: Q01DX Z (sc), vehicle: carboxymethylcellulose (CMC)) was 120 % of control. For the same compound, the T/C (dose: 1920.0 mg/kg/injection, schedule: Q01DX Z (sc), vehicle: carboxymethylcellulose (CMC)) was 103 % of control.
In the case of `O=C(OCC1OC(n2nc3ccnc(Cl)c3n2)C(OC(=O)c2ccccc2)C1OC(=O)c1ccccc1)c1ccccc1` (stereo not drawn), the T/C (dose: 50.0 mg/kg/injection, schedule: Q01DX005 (ip), vehicle: saline) is reported as 105 % of control, the T/C (dose: 100.0 mg/kg/injection, schedule: Q01DX005 (ip), vehicle: saline) is reported as 102 % of control and the T/C (dose: 200.0 mg/kg/injection, schedule: Q01DX005 (ip), vehicle: saline) is reported as 110 % of control.
In the case of `Cc1ccc(C(SCC(N)C(=O)O)(c2ccc(C)cc2)c2ccc(C)cc2)cc1` (stereo not drawn), the T/C (dose: 4.8 mg/kg/injection, schedule: Q01DX009 (ip), vehicle: saline) is reported as 95 % of control, the T/C (dose: 6.5 mg/kg/injection, schedule: Q01DX009 (ip), vehicle: saline) is reported as 108 % of control and the T/C (dose: 7.2 mg/kg/injection, schedule: Q01DX009 (ip), vehicle: saline) is reported as 104 % of control. For the same compound, the T/C (dose: 12.5 mg/kg/injection, schedule: Q01DX009 (ip), vehicle: saline) was 123 % of control, the T/C (dose: 50.0 mg/kg/injection, schedule: Q01DX009 (ip), vehicle: other) was 120 % of control and the T/C (dose: 50.0 mg/kg/injection, schedule: Q01DX009 (ip), vehicle: saline) was 157 % of control. The T/C [1] was 221 % of control and the T/C (dose: 400.0 mg/kg/injection, schedule: Q01DX009 (ip), vehicle: other) was 94 % of control.
For `CNC(=O)Oc1cc2ccccc2cc1C(=O)Nc1ccccc1`, the T/C [2] was 97 % of control, the T/C [3] was 100 % of control and the T/C [4] was 113 % of control.
`CNC(=N)c1ccc(NC(=N)c2ccc(NC(=O)c3ccc(C(=O)Nc4ccc(C(=N)Nc5ccc(C(=N)NC)cc5)cc4)cc3)cc2)cc1` was tested, and the T/C (dose: 6.25 mg/kg/injection, schedule: Q01DX Z (ip), vehicle: carboxymethylcellulose (CMC)) was 124 % of control and the T/C (dose: 100.0 mg/kg/injection, schedule: Q01DX Z (ip), vehicle: carboxymethylcellulose (CMC)) was 119 % of control.
`O=C1c2cccc3c2C2(O)c4c1cccc4C(=O)c1cccc(c12)C3=O` was tested, and the T/C [5] was 101 % of control, the T/C (dose: 100.0 mg/kg/injection, schedule: Q04DX003 (ip), vehicle: saline with Tween-80) was 96 % of control and the T/C (dose: 132.0 mg/kg/injection, schedule: Q01DX009 (ip), vehicle: saline) was 101 % of control. The T/C [6] was 101 % of control, the T/C (dose: 200.0 mg/kg/injection, schedule: Q04DX003 (ip), vehicle: saline with Tween-80) was 100 % of control and the T/C (dose: 300.0 mg/kg/injection, schedule: Q01DX009 (ip), vehicle: saline) was 95 % of control. The T/C (dose: 400.0 mg/kg/injection, schedule: Q04DX003 (ip), vehicle: saline with Tween-80) was 102 % of control.
`Cc1ccc(S(=O)(=O)NNC(=O)c2cc(C)c(C)cc2N)cc1` was tested, and the T/C (dose: 100.0 mg/kg/injection, schedule: Q01DX001 (ip), vehicle: saline) was 97 % of control, the T/C (dose: 200.0 mg/kg/injection, schedule: Q01DX001 (ip), vehicle: saline) was 101 % of control and the T/C (dose: 400.0 mg/kg/injection, schedule: Q01DX001 (ip), vehicle: saline) was 95 % of control.
With `Cn1c(=O)c2c(ncn2CCSc2nnnc3ccccc23)n(C)c1=O` the T/C [7] was 98 % of control, the T/C [8] was 93 % of control and the T/C [9] was 94 % of control.
For `CC(O)c1ccc[n+]([O-])c1` (stereo not drawn), the T/C [1] was 93 % of control, the T/C [6] was 96 % of control and the T/C (dose: 400.0 mg/kg/injection, schedule: Q01DX009 (ip), vehicle: saline) was 96 % of control.
With `O=C(NC(CSC(c1ccccc1)(c1ccccc1)c1ccccc1)C(=O)O)OCc1ccccc1` (stereo not drawn) the T/C [7] was 105 % of control, the T/C [8] was 100 % of control and the T/C [9] was 105 % of control.
`CC(C)c1cccc(C(C)C)c1OC(=O)Nc1ccccc1Cl` was tested, and the T/C (dose: 100.0 mg/kg/injection, schedule: Q01DX009 (ip), vehicle: Klucel (hydroxypropylcellulose) (HPC)) was 105 % of control, the T/C (dose: 100.0 mg/kg/injection, schedule: Q04DX003 (ip), vehicle: Klucel (hydroxypropylcellulose) (HPC)) was 100 % of control and the T/C (dose: 200.0 mg/kg/injection, schedule: Q01DX009 (ip), vehicle: Klucel (hydroxypropylcellulose) (HPC)) was 89 % of control. The T/C (dose: 200.0 mg/kg/injection, schedule: Q04DX003 (ip), vehicle: Klucel (hydroxypropylcellulose) (HPC)) was 102 % of control, the T/C (dose: 400.0 mg/kg/injection, schedule: Q01DX009 (ip), vehicle: Klucel (hydroxypropylcellulose) (HPC)) was 89 % of control and the T/C (dose: 400.0 mg/kg/injection, schedule: Q04DX003 (ip), vehicle: Klucel (hydroxypropylcellulose) (HPC)) was 103 % of control.
In the case of `O=C1C=C(NC(Cc2cnc[nH]2)C(=O)O)c2ccccc2C1=O` (stereo not drawn), the T/C (dose: 50.0 mg/kg/injection, schedule: Q01DX009 (ip), vehicle: saline with Tween-80) is reported as 97 % of control, the T/C [5] is reported as 100 % of control and the T/C (dose: 200.0 mg/kg/injection, schedule: Q01DX009 (ip), vehicle: saline with Tween-80) is reported as 93 % of control.
For `O=C(COc1ccc(Cl)cc1C(=O)O)NCc1cccc(NC(=O)Nc2ccc(S(=O)(=O)F)cc2)c1`, the T/C [10] was 96 % of control, the T/C [11] was 104 % of control and the T/C (dose: 400.0 mg/kg/injection, schedule: Q01DX001 (ip), vehicle: Klucel (hydroxypropylcellulose) (HPC)) was 105 % of control.
In the case of `COc1ccccc1-n1c(O)c(N=Nc2ccc(Cl)cc2)c(=O)n(-c2ccc(Br)cc2)c1=S`, the T/C [10] is reported as 89 % of control and the T/C [11] is reported as 92 % of control.
In the case of `Nc1ncc(CCCCc2ccccc2)c(=O)[nH]1`, the T/C (dose: 100.0 mg/kg/injection, schedule: Q01DX001 (ip), vehicle: saline with Tween-80) is reported as 96 % of control, the T/C (dose: 200.0 mg/kg/injection, schedule: Q01DX001 (ip), vehicle: saline with Tween-80) is reported as 93 % of control and the T/C (dose: 400.0 mg/kg/injection, schedule: Q01DX001 (ip), vehicle: saline with Tween-80) is reported as 98 % of control.
With `CC(NP1(=O)OCC(C)([N+](=O)[O-])CO1)c1ccccc1` (stereo not drawn) the T/C (dose: 50.0 mg/kg/injection, schedule: Q01DX001 (ip), vehicle: carboxymethylcellulose (CMC)) was 97 % of control, the T/C (dose: 100.0 mg/kg/injection, schedule: Q01DX001 (ip), vehicle: carboxymethylcellulose (CMC)) was 113 % of control and the T/C (dose: 200.0 mg/kg/injection, schedule: Q01DX001 (ip), vehicle: carboxymethylcellulose (CMC)) was 115 % of control. For the same compound, the T/C (dose: 400.0 mg/kg/injection, schedule: Q01DX001 (ip), vehicle: carboxymethylcellulose (CMC)) was 95 % of control.
`O=C1NC(=O)c2ccc(Br)c3cccc1c23` was tested, and the T/C [2] was 96 % of control, the T/C [3] was 96 % of control and the T/C [4] was 93 % of control.
With `CN=C(NC)c1ccc(NC(=O)c2cc(C(=O)Nc3ccc(C(=NC)NC)cc3)cc([N+](=O)[O-])c2)cc1` the T/C (dose: 2.0 mg/kg/injection, schedule: Q01DX Z (ip), vehicle: water) was 97 % of control, the T/C (dose: 4.0 mg/kg/injection, schedule: Q01DX Z (ip), vehicle: water) was 100 % of control and the T/C (dose: 7.5 mg/kg/injection, schedule: Q01DX Z (ip), vehicle: saline) was 100 % of control. For the same compound, the T/C (dose: 7.5 mg/kg/injection, schedule: Q01DX Z (ip), vehicle: water) was 112 % of control, the T/C (dose: 15.0 mg/kg/injection, schedule: Q01DX Z (ip), vehicle: saline) was 96 % of control and 110 % of control and the T/C (dose: 15.0 mg/kg/injection, schedule: Q01DX Z (ip), vehicle: water) was 108 % of control.
`O=C(CCN1CCCC1)c1ccc2ccccc2c1` was tested, and the T/C (dose: 25.0 mg/kg/injection, schedule: Q04DX002 (ip), vehicle: saline with Tween-80) was 97 % of control, the T/C (dose: 50.0 mg/kg/injection, schedule: Q04DX002 (ip), vehicle: saline with Tween-80) was 97 % of control and the T/C (dose: 100.0 mg/kg/injection, schedule: Q04DX002 (ip), vehicle: saline with Tween-80) was 100 % of control and 86 % of control.
